We go through 1 compound from BindingDB's records for doi:10.1016/j.ejmech.2022.114789 (Sichuan University, 2022).

The assay addresses T1, Catenin beta-1 (Homo sapiens, UniProt P35222).
T1 sequence (P35222 whole entry): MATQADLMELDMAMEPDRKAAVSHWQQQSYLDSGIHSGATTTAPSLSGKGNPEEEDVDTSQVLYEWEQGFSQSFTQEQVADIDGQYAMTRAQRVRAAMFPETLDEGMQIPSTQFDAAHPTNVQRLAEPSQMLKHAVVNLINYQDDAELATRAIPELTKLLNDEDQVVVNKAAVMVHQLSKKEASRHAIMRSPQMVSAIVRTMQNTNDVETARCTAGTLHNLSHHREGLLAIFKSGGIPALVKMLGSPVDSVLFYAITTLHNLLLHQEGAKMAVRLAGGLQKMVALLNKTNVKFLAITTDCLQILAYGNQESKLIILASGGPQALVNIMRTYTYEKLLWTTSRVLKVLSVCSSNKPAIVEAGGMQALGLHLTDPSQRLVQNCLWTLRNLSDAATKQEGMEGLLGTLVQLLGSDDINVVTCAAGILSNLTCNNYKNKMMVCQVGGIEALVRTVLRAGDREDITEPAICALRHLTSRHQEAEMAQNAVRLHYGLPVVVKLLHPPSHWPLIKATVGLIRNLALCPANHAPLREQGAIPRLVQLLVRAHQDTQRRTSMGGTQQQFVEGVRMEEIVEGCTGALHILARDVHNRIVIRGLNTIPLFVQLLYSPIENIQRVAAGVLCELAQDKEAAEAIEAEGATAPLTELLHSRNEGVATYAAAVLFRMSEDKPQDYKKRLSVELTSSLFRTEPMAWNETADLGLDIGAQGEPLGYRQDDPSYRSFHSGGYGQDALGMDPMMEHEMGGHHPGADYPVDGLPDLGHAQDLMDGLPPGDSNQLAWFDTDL
In words: Inhibition of His6-tagged human beta-Catenin (138 to 686 residues)/biotinylated human BCL9 (350 to 375 residues) protein-protein interaction assessed as inhibition constant by AlphaScreen competitive assay.

The structures appear in SMILES notation.

The term Ki denotes a measure of affinity in units of concentration, obtained from inhibition or displacement.

Consider `O=C(Nc1ccc(O[C@H]2CCNC2)c(-c2ccc(F)cc2)c1)c1ccc(O[C@H]2CCNC2)c(-c2ccc(F)c(F)c2)c1`, for which the Ki came out at 2100 nM.
